Data on 5 compounds can be found in patent US20230151373A1, “CHIMERIC POLYPEPTIDE FOR REGULATING IMMUNE CELLS” (STICHTING HET NEDERLANDS KANKER INSTITUUT-ANTONI VAN …, priority 2019, published 2023).

Structures are written as SMILES. “Also recorded” adds a separate entry of the source.

For series [1], the system named is primary human T cells modified with the HLA class I restricted CDK4 TCR. Nature of the series: Cytokine release and degranulation assay, CDK4 TCR T cells co-cultured with CDK4 peptide loaded T2 cells. It is filed as cell-based. The procedure:
(§1) For use as T cell targets, T2 and CBH 5477 cells were loaded with the indicated concentrations of HLA-A*02:01 restricted mutant CDK4 peptide (ALDPHSGHFV), HLA A*02:01 restricted NY-ESO-1 peptide (SLLMWITQA), or HLA-DR1 restricted CMV peptide (KYQEFFWDANDIYRI) in IMDM for 1 hour at 37° C. Cells were then washed once and used in co-culture experiments.
(§2) T cells and NK cells were pretreated with the indicated concentrations of asunaprevir (MedChemExpress, #HY-14434), grazoprevir (MedChemExpress, #HY-15298), dTAG-13 (Tocris, #6605) or DMSO control in T cell media (RPMI/10% human serum/penicillin-streptomycin, 100 IU/ml IL2 and 5 ng/ml IL15) or NK cell media (RPMI/8% FCS/penicillin-streptomycin, 500 IU/ml IL2), respectively, for 24 hours before co-culture experiments. 100,000 T cells or NK cells and 100,000 of indicated tumor cells were mixed in T cell or NK cell media supplemented with golgi-plug (1:1000 dilution, BD, #51-2301KZ) and anti-LAMP1-APC (1:100 dilution, Biolegend, #328620) in the presence of indicated drugs or DMSO control in 96-well plates and incubated for 5 hours at 37° C.
After incubation, cells were washed once with PBS and stained with IR dye (Invitrogen, #L34976) at 1:400 dilution for 5 minutes at 4° C. Subsequently, cells were washed once with FACS buffer (PBS plus 0.5% BSA) and stained with anti-CD8-PerCP Cy5.5 (1:20 dilution, BD, #341050), anti-CD4 BV711 (1:50 dilution, Biolegend, #317440), anti-murine constant TCR-PE (in experiments with transduced TCRs, 1:200 dilution, BD, #553172) or cetuximab-PE (in experiments with transduced CAR construct containing truncated human EGFR reporter, 1:200 dilution, R&D Systems, #FAB9577P) for 20 minutes at 4° C. Cells were then washed once with FACS buffer and fixed with BD fixation and permeabilization solution (#51-2090KZ) for 20 minutes at 4° C.
(§3) Following permeabilization, cells were washed twice with BD perm/wash buffer (#51-2091KZ) and stained with anti-IFNγ-BV421 (1:100 dilution, BD, #564791), anti-IL-2-PE-Cy7 (1:100 dilution, BD, #560707) and anti-TNFα-BV650 (1:100 dilution, Biolegend, #502938) diluted in perm/wash buffer for 20 min at 4° C. Cells were then washed twice, resuspended in 100 μl FACS buffer and analyzed directly on a Fortessa Special Order analyzer. Data were analyzed using FlowJo and Prism 7 software.

In series [2] the test system is CD8 T cells modified with an NY-ESO-1 shared antigen specific TCR. In words: Cytokine release and degranulation assay, NY-ESO-1 TCR T cells co-cultured with NY-ESO-1 peptide loaded T2 cells. It is filed as cell-based, human. To be noted: 10 μM asunaprevir. As for the experimental part: as §1
T cells and NK cells were pretreated with the indicated concentrations of asunaprevir (MedChemExpress, #HY-14434), grazoprevir (MedChemExpress, #HY-15298), dTAG-13 (Tocris, #6605) or DMSO control in T cell media (RPMI/10% human serum/penicillin-streptomycin, 100 IU/ml IL2 and 5 ng/ml IL15) or NK cell media (RPMI/8% FCS/penicillin-streptomycin, 500 IU/ml IL2), respectively, for 24 hours before co-culture experiments. […]
as §3

Series [3] concerns anti-CD19-CD28-CD3ζ chain CAR modified human T cells. In words: Cytokine release and degranulation assay, anti-CD19-CD28-CD3ζ CAR T cells co-cultured with Raji or Daudi. It is filed as cell-based. To be noted: co-culture with CD19 positive Raji or Daudi; 10 μM asunaprevir. As for the experimental part: as §2
(§4) After incubation, cells were washed once with PBS and stained with IR dye (Invitrogen, #L34976) at 1:400 dilution for 5 minutes at 4° C. […]
as §3

Another series relates to NKIRTIL006 tumor cells. Nature of the series: 51Cr release cytotoxicity assay. It is filed as cell-based, human. To be noted: 0.5 μM dTAG-13 vs DMSO.
The subject of another series is NK cell line KHYG-1. In words: Cytokine release assay, KHYG-1 NK cells co-cultured with K562 tumor. It is filed as cell-based, human. Particulars: Zap70-PD1-FKBP12^F36V switch; 0.5 μM dTAG-13. As for the experimental part: Human NK cell line KHYG-1 (DSMZ, Leibniz, Germany) was cultured in RPMI supplemented with 8% FBS and penicillin-streptomycin (100 IU/ml penicillin, 100 μg/ml streptomycin) containing 500 IU/ml IL-2 (Novartis). All cell lines were tested for mycoplasma using PCR based screening (Young et al, Nat Protoc. 2010 May; 5(5):929-34) and found negative.
24-well non treated cell culture plates were covered with 10 μg/ml retronectin (Takara, #T100B) overnight at 4° C. The next day, the retronectin solution was removed and wells were blocked with 2% BSA (Sigma-Aldrich, A9418-500g) in PBS for 30 minutes. […]
as §3

The test system of series [4] is primary human T cells modified with the CDK4 TCR. Nature of the series: Cytokine release and degranulation assay, CDK4 TCR T cells with SMASh or FKBP12^F36V switch co-cultured with NKIRTIL006 tumor cells. It is filed as cell-based. The procedure:
as §2, §4, §3

Series [5] concerns primary human T cells modified with the CDK4 TCR and Zap70-PD1-zinc finger degrons. In words: IMiD regulation of zinc finger degron CRASH-IT switches, CDK4 TCR T cells co-cultured with NKIRTIL006 tumor cells. It is filed as cell-based. To be noted: for restoration of activity levels (cytokine production, cell surface LAMP-1) by IMiD: IKZF1-based CRASH-IT switch (IKZF1 ZF2-ZF3 degron).
Source text: Constructs containing various zinc finger degrons in MP71 Zap70-PD1-Zinc finger IRES-EGFP format were created using IKZF1 ZF2-3 degron containing sequence (Q13422, 141-197 aa), or IKZF3 ZF2-3 degron containing sequence (Q9UKT9, 142-198 aa), or ZFP91 ZF4-5 degron containing sequence (Q96JP5, 396-455 aa), ZNF276 ZF4-5 degron containing sequence (Q8N554, 520-579 aa), ZNF653 ZF4-5 degron containing sequence (Q96CK0, 552-611 aa), or ZNF692 ZF4-5 degron containing sequence (Q9BU19, 413-473 aa). For CRASH-IT switches encoding hybrid zinc finger degrons, the IKZF1 ZF2 beta turn sequence (FQCNQCGASFT) was replaced with beta turn sequences from ZNF653 ZF4 (LQCEICGYQCR), ZFP91 ZF4 (LQCEICGFTCR), ZNF276 ZF4 (LQCEVCGFQCR), or ZNF827 ZF1 (FQCPICGLVIK). For the CRASH-IT switch encoding ZFP91/IKZF1 hybrid zinc finger without IKZF1 ZF3 (single ZF), the IKZF1 ZF3 containing sequence (Q13422, 170-197 aa) was deleted from the Zap70-PD1-ZFP91/IKZF1 hybrid zinc finger (double ZF) construct.
as §2
After incubation, cells were washed once with PBS and stained with IR dye (Invitrogen, #L34976) at 1:400 dilution for 5 minutes at 4° C. Subsequently, cells were washed once with FACS buffer (PBS plus 0.5% BSA) and stained with anti-CD8-PerCP Cy5.5 (1:20 dilution, BD, #341050), anti-CD4 BV711 (1:50 dilution, Biolegend, #317440), anti-murine constant TCR-PE (in experiments with transduced TCRs, 1:200 dilution, BD, #553172) or cetuximab-PE (in experiments with transduced CAR construct containing truncated human EGFR reporter, 1:200 dilution, R&D Systems, #FAB9577P) for 20 minutes at 4° C. […]
as §3

[6] abbreviates: Zap70-PD1-SMASh T cells, 10 μM asunaprevir relative to DMSO-treated cells, peptide-loaded target cells (10 nM).

`C=C[C@@H]1C[C@]1(NC(=O)[C@@H]1C[C@@H](Oc2ncc(OC)c3ccc(Cl)cc23)CN1C(=O)[C@@H](NC(=O)OC(C)(C)C)C(C)(C)C)C(=O)NS(=O)(=O)C1CC1` [asunaprevir]: in series [1] (setting [6]), the “boost of CD8+ T cell activation, IFNγ” value was found to be 8.8 fold; the “boost of CD8+ T cell activation, IL2” value was 11.5 fold; the “boost of CD8+ T cell activation, TNFα” value is listed as 6.3 fold; the “boost of CD8+ T cell activation, cell surface LAMP1 expression” value was 6.6 fold. Besides, the “drug effect on inhibition of T cell function by Zap70-PD1-SMASh” value in series [1] (primary human CD8 and CD4 T cells with Zap70-PD1-SMASh) is “reverted; also recorded: dose dependent recovery”. Further, the “effector functions of Zap70-PD1-SMASh fusion protein-negative T cells (vector control)” value in series [1] (vector control T cells, protease inhibitor) is reported as “unaltered”. Moreover, the “functional activity of NY-ESO-1 TCR CD8 T cells with CRASH-IT switch upon drug addition” value in series [2] is “restored”. For the same compound, the “T cell functions of CAR T cells with Zap70-PD1-SMASh upon drug addition” value in series [3] is on record as “recovered”.
As for `CC[C@H](C(=O)N1CCCC[C@H]1C(=O)O[C@H](CCc1ccc(OC)c(OC)c1)c1ccccc1OCC(=O)NCCCCCCOc1cccc2c1C(=O)N(C1CCC(=O)NC1=O)C2=O)c1cc(OC)c(OC)c(OC)c1` (some centres unmarked) [dTAG-13], in the series on NKIRTIL006 tumor cells, the “cytotoxic activity of control vector-modified T cells” value is “unaltered” and the “killing of 51Cr loaded NKIRTIL006 tumor cells by sorted CD8 cells with Zap70-PD1-FKBP12^F36V” value is “increased killing”. In addition, in the series with NK cell line KHYG-1, the “suppression of NK cell cytokine production in the presence of drug” value was “reversed”. The “reactivation of T cell function at high drug concentrations” value in series [4] (FKBP12^F36V/dTAG-13 based switches, high drug concentrations) was “suboptimal reactivation of T cell function”. Also, the “concentration at which activation of CRASH-IT platform peaks” value in series [4] (small-molecule titration, Zap70-PD1-FKBP12^F36V (dTAG-13) or Zap70-PD1-SMASh (HCV NS3/4A inhibitors)) was “around 0.5 μM”.
As for `O=C1CCC(N2C(=O)c3ccccc3C2=O)C(=O)N1` (centres unmarked) [thalidomide], the “restoration of activity levels (cytokine production, cell surface LAMP-1) by IMiD” value in series [5] is recorded as “lesser”. Moreover, the “reduction of thalidomide concentration required for the same level of cytokine production (IFNγ, IL-2, or TNFα) or surface LAMP-1 expression” value in series [5] (T cells expressing the chimeric degrons as compared to the parental IKZF1 ZF2-3 degron) is “around 1,000 fold”.
Take `Nc1cccc2c1C(=O)N(C1CCC(=O)NC1=O)C2=O` (centres unmarked) [pomalidomide]: the “restoration of activity levels (cytokine production, cell surface LAMP-1) by IMiD” value in series [5] is recorded as “robustly restored”.
Still for that read-out and setting: the entry for `Nc1cccc2c1CN(C1CCC(=O)NC1=O)C2=O` (centres unmarked) [lenalidomide] is “robustly restored”.
